Results as given in PMC9668655 (Computational and Structural Biotechnology Journal, 2022).

How the values were obtained:
RSL-MOA [1] = type: binding, Ralstonia nicotianae; Marasmius oreades; conditions: 50 nM RSL-MOA pre-incubated with fucose; 10 mM HEPES pH 7.5, 100 mM NaCl, 0.05 % Tween 20, 25 °C; RSL site; competitive with immobilised fucose
RSL = RSL (Ralstonia pseudosolanacearum, UniProt Q8XXK6); conditions: 250 µM; 250 μM ligand, 25 μM protein; absolute Tm1, not a shift (ligand-free reference in the 2nd table, row 4); 20 mM Tris/HCl pH 7.5, 100 mM NaCl
RSL-MOA [2] = type: binding, Ralstonia nicotianae; Marasmius oreades; conditions: 20 mM Tris/HCl pH 7.5, 100 mM NaCl, 25 °C, one-site model, titrated into the RSL-MOA/Galα1-3Gal complex

Structure (SMILES) | IC50 (RSL-MOA [1]) [µM] | Tm1 (°C) (RSL) | Kd (RSL-MOA [2]) [µM]
C[C@@H]1OC(O)[C@@H](O)[C@H](O)[C@@H]1O (stereo partly drawn) [L-fucose] | 7.8 | – | –
CO[C@@H]1O[C@@H](C)[C@@H](O)[C@@H](O)[C@@H]1O [α-methyl fucoside] | – | 101.6 | 0.4
